Reference: PubChem BioAssay (NCI)
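Protocol summary: plate cells (96-well), add compound at 5 concentrations, incubate 48 h, interpolate endpoints linearly. TGI is the concentration that stops growth completely.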

Tests used:
Assay in all cases: NCI tumour cell line growth inhibition, 48 h
[1] = test system: 786-0 renal
[2] = test system: A498 renal
[3] = test system: A549 NSCLC
[4] = test system: ACHN renal
[5] = test system: BT-549 breast
[6] = test system: CAKI-1 renal
[7] = test system: EKVX NSCLC
[8] = test system: HCC-2998 colon
[9] = test system: HCT-15 colon
[10] = test system: HL-60(TB) leukemia
[11] = test system: HS 578T breast
[12] = test system: HT29 colon
[13] = test system: K-562 leukemia
[14] = test system: LOX IMVI melanoma
[15] = test system: M14 melanoma
[16] = test system: MCF7 breast
[17] = test system: MOLT-4 leukemia
[18] = test system: NCI-H226 lung
[19] = test system: NCI-H23 lung
[20] = test system: NCI-H460 lung
[21] = test system: NCI/ADR-RES ovarian
[22] = test system: OVCAR-3 ovarian
[23] = test system: OVCAR-4 ovarian
[24] = test system: OVCAR-5 ovarian
[25] = test system: OVCAR-8 ovarian
[26] = test system: PC-3 prostate
[27] = test system: RPMI-8226 leukemia
[28] = test system: SF-268 CNS
[29] = test system: SF-539 CNS
[30] = test system: SK-MEL-28 melanoma
[31] = test system: SK-OV-3 ovarian
[32] = test system: SN12C renal
[33] = test system: SNB-19 CNS
[34] = test system: SNB-75 CNS
[35] = test system: SR leukemia
[36] = test system: SW-620 colon
[37] = test system: TK-10 renal
[38] = test system: U251 CNS
[39] = test system: UACC-62 melanoma
[40] = test system: UO-31 renal
[41] = test system: CCRF-CEM leukemia
[42] = test system: COLO 205 colon
[43] = test system: HOP-62 NSCLC
[44] = test system: IGROV1 ovarian
[45] = test system: MALME-3M melanoma
[46] = test system: MDA-MB-435
[47] = test system: RXF 393 renal
[48] = test system: SK-MEL-2 melanoma
[49] = test system: SK-MEL-5 melanoma
[50] = test system: T-47D breast
[51] = test system: DU-145 prostate
[52] = test system: HCT-116 colon
[53] = test system: HOP-92 NSCLC
[54] = test system: KM12 colon
[55] = test system: MDA-MB-231 breast
[56] = test system: NCI-H522 lung
[57] = test system: SF-295 CNS
[58] = test system: UACC-257 melanoma

COc1ccc2c(c1)C/C(=C\c1ccc(O)c(OC)c1)C2=O
TGI [1]: > 100 µM | TGI [2]: > 100 µM | TGI [3]: > 100 µM | TGI [4]: > 100 µM | TGI [5]: > 100 µM | TGI [6]: > 100 µM | TGI [7]: > 100 µM | TGI [8]: > 100 µM | TGI [9]: > 100 µM | TGI [10]: > 100 µM | TGI [11]: > 100 µM | TGI [12]: > 100 µM | TGI [13]: > 100 µM | TGI [14]: > 100 µM | TGI [15]: > 100 µM | TGI [16]: > 100 µM | TGI [17]: > 100 µM | TGI [18]: > 100 µM | TGI [19]: > 100 µM | TGI [20]: > 100 µM | TGI [21]: > 100 µM | TGI [22]: > 100 µM | TGI [23]: > 100 µM | TGI [24]: > 100 µM | TGI [25]: > 100 µM | TGI [26]: > 100 µM | TGI [27]: > 100 µM | TGI [28]: > 100 µM | TGI [29]: > 100 µM | TGI [30]: > 100 µM | TGI [31]: > 100 µM | TGI [32]: > 100 µM | TGI [33]: > 100 µM | TGI [34]: > 100 µM | TGI [35]: > 100 µM | TGI [36]: > 100 µM | TGI [37]: > 100 µM | TGI [38]: > 100 µM | TGI [39]: > 100 µM | TGI [40]: > 100 µM

O=C1c2ccccc2-c2nnc(-c3ccccc3)cc21
TGI [1]: > 10 µM | TGI [3]: > 10 µM | TGI [4]: > 10 µM | TGI [6]: > 10 µM | TGI [41]: > 10 µM | TGI [42]: > 10 µM | TGI [10]: > 10 µM | TGI [43]: > 10 µM | TGI [44]: > 10 µM | TGI [13]: > 10 µM | TGI [15]: > 10 µM | TGI [45]: > 10 µM | TGI [16]: > 10 µM | TGI [46]: > 10 µM | TGI [17]: > 10 µM | TGI [19]: > 10 µM | TGI [20]: > 10 µM | TGI [21]: > 10 µM | TGI [23]: > 10 µM | TGI [24]: > 10 µM | TGI [27]: > 10 µM | TGI [47]: > 10 µM | TGI [28]: > 10 µM | TGI [48]: > 10 µM | TGI [30]: > 10 µM | TGI [49]: > 10 µM | TGI [31]: > 10 µM | TGI [34]: > 10 µM | TGI [35]: > 10 µM | TGI [36]: > 10 µM | TGI [50]: > 10 µM | TGI [38]: > 10 µM | TGI [39]: > 10 µM

O=C1CCCc2c1c1c(n2Cc2ccccc2)-c2ccccc2C1=O
TGI [1]: 66.5 µM | TGI [3]: 88.2 µM | TGI [4]: 30.9 µM | TGI [5]: 55.7 µM | TGI [6]: 46.2 µM | TGI [41]: > 100 µM | TGI [42]: 42.8 µM | TGI [51]: > 100 µM | TGI [7]: 91.3 µM | TGI [8]: 30.3 µM | TGI [52]: 31.1 µM | TGI [9]: 34.7 µM | TGI [10]: 58.7 µM | TGI [43]: 50.2 µM | TGI [53]: 99.7 µM | TGI [11]: 77.3 µM | TGI [12]: > 100 µM | TGI [44]: 72.1 µM | TGI [13]: 46.6 µM | TGI [54]: 47 µM | TGI [14]: 39.5 µM | TGI [15]: 46.4 µM | TGI [45]: 38.1 µM | TGI [16]: > 100 µM | TGI [55]: 42.9 µM | TGI [46]: 38.2 µM | TGI [18]: 66.1 µM | TGI [19]: 32.1 µM | TGI [20]: > 100 µM | TGI [56]: 33.8 µM | TGI [21]: 50.1 µM | TGI [22]: 36.7 µM | TGI [23]: 36.5 µM | TGI [24]: > 100 µM | TGI [25]: 34 µM | TGI [26]: 96.6 µM | TGI [27]: 24.3 µM | TGI [47]: > 100 µM | TGI [28]: 64.1 µM | TGI [57]: 37.5 µM | TGI [29]: 48.6 µM | TGI [48]: 43 µM | TGI [30]: 55.1 µM | TGI [49]: 40.7 µM | TGI [31]: > 100 µM | TGI [32]: 45.5 µM | TGI [33]: 41.1 µM | TGI [34]: > 100 µM | TGI [36]: > 100 µM | TGI [50]: 33.3 µM | TGI [37]: 31.4 µM | TGI [38]: 43.9 µM | TGI [58]: 32.1 µM | TGI [39]: 44.9 µM | TGI [40]: > 100 µM
